Reference: US8318657B2, “Methods and compositions for preventing and/or treating pancreatitis” (Flinders Technologies Pty Ltd., priority 2005, dated 2012)
“Also recorded” adds a separate entry of the source.

Assays:
[1] = tested on: caerulein-induced acute pancreatitis (AP) in mice; assay: Caerulein-induced acute pancreatitis in mice (mild model, 7 hourly i.p. injections) with galanin or galanin antagonists; assay type: in vivo, mouse (female Balb C or Swiss); conditions: for pancreatic acinar cell necrosis score: histology scoring system
[2] = tested on: basal pancreatic exocrine secretion; assay: Basal pancreatic exocrine secretion in anaesthetised possums; assay type: in vivo, Australian Brush-tailed possums (Trichosurus vulpecula); conditions: galanin 0.5 or galantide 1.5 nmol/kg bolus then 2 nmol/kg/h i.v., preliminary study
Method: The possums were anaesthetized as described above. The left femoral vein was cannulated with two cannulae (1.05 mm OD, 0.35 ID) for administration of anaesthetic drugs and normal saline. […] A midline laparotomy was then performed. With minimal handling of tissues, the duodenum with the sphincter of Oddi was placed on a platform and stabilised with pins. The pancreatic duct component of the sphincter of Oddi was identified with the aid of a dissecting microscope and opened with micro-scissors. It was then cannulated (1.5 mm OD, 0.9 mm ID) advanced 4-5 mm and ligated with 5-0 prolene suture. This cannula was left open to collect pancreatic juice. After an initial stabilization period of 15 minutes, the pancreatic juice was collected every 30 minutes for 3.5 hours.
(§1) The quantity of pancreatic exocrine secretion was estimated gravimetrically (basal secretion and stimulated secretion).

[3] = tested on: mice without acute pancreatitis; assay: Control groups: mice given galanin or galanin antagonist alone (saline, no caerulein); conditions: mice without AP
[4] = tested on: possum model of acute pancreatitis (AP); assay: Possum model of acute pancreatitis (pancreatic duct ligation + CCK/secretin) with galanin or galantide; assay type: in vivo, Australian Brush-tailed possums (Trichosurus vulpecula); conditions: for plasma amylase activity / plasma lipase activity / pancreatic vascular perfusion (PVP) / pancreatic oedema: possum AP; for pancreatic oedema: pancreas harvested 8 hours post-AP induction, H&E, point counting, treatment from 15 minutes prior to AP induction, decrease of AP-induced oedema
[5] = tested on: hyperstimulated pancreatic exocrine secretion; assay: Hyperstimulated (CCK/secretin) pancreatic exocrine secretion in anaesthetised possums; assay type: in vivo, Australian Brush-tailed possums (Trichosurus vulpecula); conditions: CCK/secretin 5 ug/kg of each/hour i.v., galanin 0.5 or galantide 1.5 nmol/kg bolus then 2 nmol/kg/h, decrease of elevated volume, preliminary study
Method: The experimental setup was similar to as described above. In the control group after an initial stabilization period of 15 minutes, the pancreatic juice was collected at half hourly intervals for one hour. This established the basal secretion rate. Then a mixture of cholecystokinin and secretin (CCK-SEC) was infused i.v at 5 μg (of each peptide)/kg/hr for the entire duration of the experiment.
The galanin or galantide infusion was continued for one and a half hour and then stopped. The CCK-SEC infusion was further continued for one hour. During the entire course of experiment, pancreatic juice was collected at half hourly intervals.
as §1

[6] = mouse caerulein AP, 20 nmol/kg i.p. with each caerulein injection, reduction of AP-induced level
[7] = mouse caerulein AP, 40 nmol/kg i.p. with each caerulein injection, reduction of AP-induced level
[8] = mouse caerulein AP, GT 40 nmol/kg, treatment delayed for 2 hours post-AP induction
[9] = GT 1.5 nmol/kg bolus then 2 nmol/kg/h i.v., delayed: initiated 2 hours post-AP induction
[10] = GT 1.5 nmol/kg bolus then 2 nmol/kg/h i.v., delayed: initiated 2 hours post-AP induction, listed as GT
[11] = i.v. bolus (GL 0.5, GT 1.5 nmol/kg) then 2 nmol/kg/h continuous infusion, initiated 15 minutes prior to AP induction, effect on AP-induced rise
[12] = i.v. bolus (GL 0.5, GT 1.5 nmol/kg) then 2 nmol/kg/h continuous infusion, initiated 15 minutes prior to AP induction, effect on AP-induced rise, listed as GT

For `CSCC[C@H](NC(=O)[C@H](CC(C)C)NC(=O)CNC(=O)[C@H](Cc1ccccc1)NC(=O)[C@H](Cc1ccccc1)NC(=O)[C@H](CCC(N)=O)NC(=O)[C@H](CCC(N)=O)NC(=O)[C@@H]1CCCN1C(=O)CNC(=O)[C@H](CC(C)C)NC(=O)[C@H](CC(C)C)NC(=O)[C@H](Cc1ccc(O)cc1)NC(=O)CNC(=O)[C@H](C)NC(=O)[C@H](CO)NC(=O)[C@H](CC(N)=O)NC(=O)[C@H](CC(C)C)NC(=O)[C@@H](NC(=O)[C@H](Cc1c[nH]c2ccccc12)NC(=O)CN)[C@@H](C)O)C(N)=O` [Galantide, Galanin(1-13)-substance P(5-11) amide], the “pancreatic myeloperoxidase (MPO) activity” value (from here on “pancreatic myeloperoxidase”) ([1]; mouse caerulein AP, 10 nmol/kg i.p. with each caerulein injection, reduction of AP-induced level, listed as GT) was “also effective; also recorded: significantly reduced”, the “pancreatic tissue architecture / AP-induced pancreatic damage (histological sections)” value ([1]; mouse caerulein AP, 20 nmol/kg) was “reduced the acute pancreatitis-induced pancreatic damage” and the “pancreatic myeloperoxidase” value [1, 6] was “significantly reduced”. For the same compound, the plasma amylase activity [1, 6] was “reduced the plasma amylase level”, the plasma lipase activity [1, 6] was “significantly reduced” and the plasma amylase activity ([1]; mouse caerulein AP, 20 nmol/kg i.p. with each caerulein injection, reduction of AP-induced level, listed as GT) was “significantly reduced”. For the same compound, the “pancreatic acinar cell necrosis score” value ([1]; mouse caerulein AP, 20 nmol/kg) was “reduced the pancreatitis-induced necrosis”, the “pancreatic acinar cell necrosis score” value ([1]; mouse caerulein AP, 20 nmol/kg, listed as GT) was “significantly reduced the necrosis score” and the “histology score (pancreatic tissue damage)” value ([1]; mouse caerulein AP, 20 nmol/kg, scoring system) was “significantly reduced the histology score”. For the same compound, the plasma amylase activity [1, 7] was “reduced the plasma amylase level”, the plasma lipase activity [1, 7] was “significantly reduced” and the plasma amylase activity ([1]; mouse caerulein AP, 40 nmol/kg i.p. with each caerulein injection, reduction of AP-induced level, listed as GT) was “significantly reduced”. The “pancreatic myeloperoxidase” value ([1]; mouse caerulein AP, 40 nmol/kg i.p. with each caerulein injection, vs AP alone) was “significantly reduced”, the plasma amylase activity [1, 8] was “significantly reduced” and the plasma lipase activity [1, 8] was “significantly reduced”. For the same compound, the pancreatitis-induced plasma hyperenzymemia ([1]; mouse caerulein AP, galantide administered 2 hours post pancreatitis onset, preliminary results) was “reduces the pancreatitis-induced plasma hyperenzymemia”, the “severity of pancreatitis (summary)” value ([1]; mouse pancreatitis studies) was “has the ability to reduce the severity of pancreatitis” and the “basal rate of pancreatic exocrine secretion (volume)” value [2] was “does not influence basal exocrine secretion (volume)”. The “pancreatic myeloperoxidase” value ([3]; 20 nmol/kg alone) was “did induce a low level of pancreatic MPO”, the “pancreatic tissue architecture (histological sections)” value ([3]; 20 nmol/kg alone) was “near normal pancreatic architecture” and the plasma amylase activity ([3]; 20 nmol/kg alone, vs baseline) was “did not increase plasma amylase activity above baseline activity”. The plasma lipase activity ([3]; 20 nmol/kg alone, vs baseline) was “did not increase plasma lipase activity above baseline activity”, the “pancreatic myeloperoxidase” value ([3]; 40 nmol/kg alone) was “did induce a low level of pancreatic MPO” and the plasma amylase activity [4, 9] was “reduces plasma amylase and lipase secretion”. The plasma lipase activity [4, 9] was “reduces plasma amylase and lipase secretion”, the plasma amylase activity [4, 10] was “reduced the AP-induced rise in plasma amylase activity” and the plasma lipase activity [4, 10] was “suppressed the AP-induced rise in plasma lipase activity”. For the same compound, the “pancreatic vascular perfusion (PVP)” value ([4]; i.v. bolus (GL 0.5, GT 1.5 nmol/kg) then 2 nmol/kg/h continuous infusion, initiated 15 minutes prior to AP induction) was “increases PVP from the outset”, the plasma amylase activity [4, 11] was “completed prevented the pancreatitis-induced increase in plasma amylase” and the plasma lipase activity [4, 11] was “markedly depressed the pancreatitis-induced increase in plasma lipase”. For the same compound, the plasma amylase activity [4, 12] was “completely suppressed the AP-induced rise in plasma amylase activity”, the plasma lipase activity [4, 12] was “markedly suppressed the AP-induced rise in plasma lipase activity” and the “pancreatic vascular perfusion (PVP)” value ([4]; i.v. bolus (GL 0.5, GT 1.5 nmol/kg) then 2 nmol/kg/h continuous infusion, initiated 15 minutes prior to AP induction, listed as GT) was “sustained fall in PVP”. For the same compound, the pancreatic oedema [4] was “reduced”, the pancreatic oedema ([4]; listed as GT) was “significantly decreased” and the “severity of pancreatitis (summary)” value ([4]; possums, administration prior to the onset and also after onset of acute pancreatitis) was “reduces the severity of pancreatitis”. For the same compound, the “hyperstimulated pancreatic exocrine secretion (volume of pancreatic juice)” value [5] was “does reduce hyper-stimulated exocrine secretion” and the “hyperstimulated pancreatic exocrine secretion (volume of pancreatic juice)” value ([5]; listed as galantide) was “decreased”.
